# Experimental data as given in publication PMC5751249, “Anti-Diabetic Effect of Organo-Chalcogen (Sulfur and Selenium) Zinc Complexes with Hydroxy-Pyrone Derivatives on Leptin-Deficient Type 2 Diabetes Model ob/ob Mice” (International Journal of Molecular Sciences, 2017).
# Assays:
# [1] = tested on: male Wistar rats; set-up: method as in earlier work; details: in food 10 µg sodium selenite/kg/day (4.6 µg Se/kg/day), 3 months; cited from earlier work
# [2] = tested on: type 2 diabetic ob/ob mice; experiment: Daily oral treatment of ob/ob mice for 28 days: blood glucose, body weight, water intake; assay type: in vivo
# Description: The anti-diabetic effects of both [Zn(hmpt)2] and [Zn(hmps)2] were examined in ob/ob mice. The ob/ob and +/+ mice were used as type 2 diabetic and normal (non-diabetic) mice, respectively. The ob/ob (10-week-old) and +/+ (10-week-old) mice received daily oral treatment of either Zn complexes dissolved in PEG-400 or PEG-400 only, respectively. The mice received oral treatments of [Zn(hmpt)2] or [Zn(hmps)2] at doses of 2.5–10 mg Zn/kg or 1.0–5.0 mg Zn/kg for 28 days, respectively. Blood glucose levels (BGL) were measured using a Glucocard (Arkray, Kyoto, Japan) just before treatment with the Zn complexes, and the doses were regulated based on the BGL. Over 28 days, BGL, body weight, food intake, and water intake were measured every day. The number of normal mice (+/+ mice), control mice (ob/ob mice), [Zn(hmpt)2]-treated, and [Zn(hmps)2]-treated mice was 6, 8, 8, and 8 in the initial animal experiments, respectively. This was modified to 6, 6, 7, and 8 after the end of experiments as two control mice died naturally by the end of experiments, and one [Zn(hmpt)2]-treated mouse died from an accident during the oral glucose tolerance test.
# [3] = tested on: type 2 diabetic ob/ob mice; experiment: Oral glucose tolerance test (OGTT) after 28 days treatment; assay type: in vivo
# Description: After treatment with [Zn(hmpt)2] or [Zn(hmps)2] for 28 days, OGTTs were performed. The ob/ob mice and +/+ mice were fasted for 12-h and glucose (1 g/kg body weight) was given orally. Blood samples were obtained from the tail vein at 0, 15, 30, 45, 60, 90, and 120 min after glucose administration. Blood glucose concentrations were measured using a Glucocard.
# [4] = tested on: type 2 diabetic ob/ob mice; assay type: in vivo
# Description: (§1) After OGTT, HbA1c levels were measured in blood obtained from the mouse tail vein using an immunoassay with a DCA 2000 analyzer (Bayer-Sankyo Co., Ltd., Tokyo, Japan). The mice were subjected to a 12-h fast and blood samples were collected from the orbital vein or postcaval vein under isoflurane anesthesia using heparinized tools. Collected samples were then centrifuged at 650× g for 10 min at 4 °C, and the resultant plasma samples were used to analyze various biochemical parameters. The levels of AST, ALT, BUN, TG, T-CHO, and ALP in plasma samples were determined using a Fuji Dry Chem system. The plasma levels of insulin and adiponectin were determined using an ultra-sensitive Mouse Insulin ELISA Kit (Morinaga Institute of Biological Science, Inc., Kanagawa, Japan) and an adiponectin immunoassay kit (R&D Systems Inc., Minneapolis, MN, USA), respectively. After collecting the blood samples, mice were subjected to dissection under isoflurane anesthesia, and the resultant tissue samples were washed in saline. Each of the samples was dehydrated for a week in desiccators, weighed, and then heated in 5% HNO3 (5 mL) for 5 h at 110 °C in a closed system. The resultant solution was centrifuged at 1250× g for 15 min, and the supernatant was diluted using 5% HNO3. Both Zn and Se concentrations in organs were determined with an ICP-MS Agilent 7700x/Mass Hunter instrument (Agilent Technologies Inc., Santa Clara, CA, USA). The Zn and Se concentrations in each sample were calculated using linear regression of the standard curves prepared from standard solutions of the respective trace elements.
# [5] = Organ distribution of Zn and Se by ICP-MS after 28 days oral treatment; assay type: in vivo, mice
# Description: as §1
# [6] = tested on: type 2 diabetic ob/ob mice; experiment: Histopathology and morphometric analysis of pancreas and liver (HE staining); assay type: in vivo; details: 14-week-old mice
# Description: Excised pancreas and liver from 14-week-old mice were immediately fixed in 10% buffered formalin for a week, sectioned at a thickness of 3 μm, and stained with HE for histopathological examination. HE-stained tissue sections were scanned using a Moticam T2 (Shimadzu Co., Kyoto, Japan) to prepare digital images. Both pancreatic islet area and glycogen and fat deposition areas were calculated with the dedicated image processing software WinROOF (Mitani Corp., Tokyo, Japan).
# [7] = tested on: type 2 diabetic ob/ob mice; experiment: Triglyceride and glycogen contents in the liver; assay type: in vivo; details: ob/ob mice after 28 days oral treatment
# Description: Lipids in the liver were extracted according to modified Folch method. TG in the extracted lipids was detected using the triglyceride E test wako (Wako Pure Chemicals Co., Osaka, Japan). Glycogen in the liver was extracted with a strong base (30% KOH aq). Then, ethanol precipitation methods (using 95% ethanol and saturated Na2SO4), hydrolysis, and neutralization (with 2.4 M HCl aq and 0.8 M NaOH aq) of the glycogen extracts were performed, resulting in degradation to glucose solution. To detect the glucose levels in the solution using the glucose CII test wako (Wako Pure Chemicals Co., Osaka, Japan), glycogen levels in the liver were estimated. Because the liver sample of normal mice was used up during TG detection and ICP-MS analysis, glycogen content in the liver could not be detected.
# [8] = tested on: Isolated male Wistar rat epididymal adipocytes; set-up: method as in PMID 29843022; details: 20 μM Zn complex, means ± SDs, three runs; cited from earlier work
smiles,measurement,setting,value
O=[Se]([O-])[O-].[Na+].[Na+] [sodium selenite],Hepatic histology finding,[1],necrotic areas in hepatic sections were observed
"Cc1occc(=[Se])c1[O-].Cc1occc(=[Se])c1[O-].[Zn+2] [[Zn(hmps)2], bis(3-hydroxy-2-methyl-4(H)-pyran-4-seleno)Zn]",Blood glucose level by the end of treatment,"[2]; [Zn(hmpt)2] 2.5–10 mg Zn/kg, [Zn(hmps)2] 1.0–5.0 mg Zn/kg",approximately 200 mg/dL
same,Water intake on the final day,"[2]; control 12.6 ± 1.6 g, p < 0.01 vs. control",6.9 ± 0.5 g
same,Body weight change during treatment,"[2]; loss seen day 22 to 25, recovered after dose reduction",Body weight gains
same,Area under the blood glucose concentration-time curve (AUC) in OGTT,"[3]; 1 g glucose/kg oral, after 28 days treatment, compared with control mice",significantly decreased
same,Fasting blood glucose level (0 min of OGTT),"[3]; ob/ob mice after 28 days oral treatment, 12-h fast, control 237 ± 52 mg/dL",172 ± 38 mg/dL
same,ALP (plasma),"[4]; mouse, in vivo, po","550 ± 89 **^,##,†† U/L"
same,ALT (plasma),"[4]; mouse, in vivo, po","355 ± 138 **^,##,†† U/L"
same,AST (plasma),"[4]; mouse, in vivo, po","200 ± 55 **^,##,†† U/L"
same,BUN (plasma),"[4]; mouse, in vivo, po","24 ± 3 **^,## mg/dL"
same,Insulin (fasting plasma),"[4]; ob/ob mice after 28 days oral treatment, control 2.2 ± 1.0",1.4 ± 0.6 ng/mL
same,HbA1c,"[4]; ob/ob mice after 28 days oral treatment, control 7.9 ± 0.8","6.7 ± 0.4 **^,## %"
same,Adiponectin (plasma),"[4]; ob/ob mice after 28 days oral treatment, control 8.2 ± 1.1",9.0 ± 0.8 µg/mL
same,TG (plasma),"[4]; ob/ob mice after 28 days oral treatment, control 83 ± 16",87 ± 11 mg/dL
same,T-CHO (plasma),"[4]; ob/ob mice after 28 days oral treatment, control 195 ± 16",186 ± 16 mg/dL
same,"Δ[Zn]/Δ[Se] molar ratio, bone","[5]; [Zn(L)] = 1.0, [Zn(L)2] = 0.5",6.9
same,"Δ[Zn]/Δ[Se] molar ratio, kidney","[5]; [Zn(L)] = 1.0, [Zn(L)2] = 0.5",0.25
same,"Δ[Zn]/Δ[Se] molar ratio, liver","[5]; [Zn(L)] = 1.0, [Zn(L)2] = 0.5",0.61
same,"Δ[Zn]/Δ[Se] molar ratio, pancreas","[5]; [Zn(L)] = 1.0, [Zn(L)2] = 0.5",27
same,"Se concentration, bone","[5]; dry tissue, ob/ob mice after 28 days oral treatment, control 0.5 ± 0.2",1.9 ± 0.6 µg/g
same,"Se concentration, muscle","[5]; dry tissue, ob/ob mice after 28 days oral treatment, control 1.3 ± 0.4","2.5 ± 0.4 **^,#,†† µg/g"
same,"Se concentration, liver","[5]; dry tissue, ob/ob mice after 28 days oral treatment, control 2.1 ± 0.3",5.1 ± 0.6 µg/g
same,"Se concentration, pancreas","[5]; dry tissue, ob/ob mice after 28 days oral treatment, control 2.3 ± 0.6","3.4 ± 0.8 **^,##,†† µg/g"
same,"Se concentration, spleen","[5]; dry tissue, ob/ob mice after 28 days oral treatment, control 2.7 ± 0.8","9.1 ± 2.4 **^,##,†† µg/g"
same,"Se concentration, kidney","[5]; dry tissue, ob/ob mice after 28 days oral treatment, control 6.4 ± 0.2","12.7 ± 2.0 **^,##,†† µg/g"
same,"Zn concentration, liver","[5]; dry tissue, ob/ob mice after 28 days oral treatment, control 44 ± 5","46 ± 6 ^##^,† µg/g"
same,"Zn concentration, muscle","[5]; dry tissue, ob/ob mice after 28 days oral treatment, control 47 ±10",41 ± 2 µg/g
same,"Zn concentration, kidney","[5]; dry tissue, ob/ob mice after 28 days oral treatment, control 67 ± 3",68 ± 4 µg/g
same,"Zn concentration, spleen","[5]; dry tissue, ob/ob mice after 28 days oral treatment, control 100 ± 17",95 ± 12 µg/g
same,"Zn concentration, pancreas","[5]; dry tissue, ob/ob mice after 28 days oral treatment, control 133 ± 19",158 ± 28 µg/g
same,"Zn concentration, bone","[5]; dry tissue, ob/ob mice after 28 days oral treatment, control 154 ± 7","162 ± 10 *^,^†† µg/g"
same,"Δ[Se], bone","[5]; mouse, in vivo, po",18 nmol/g
same,"Δ[Se], kidney","[5]; mouse, in vivo, po",81 nmol/g
same,"Δ[Se], liver","[5]; mouse, in vivo, po",38 nmol/g
same,"Δ[Se], pancreas","[5]; mouse, in vivo, po",14 nmol/g
same,"Δ[Se], plasma","[5]; mouse, in vivo, po",6 nmol/g
same,"Δ[Zn], bone","[5]; mouse, in vivo, po",124 nmol/g
same,"Δ[Zn], kidney","[5]; mouse, in vivo, po",20 nmol/g
same,"Δ[Zn], liver","[5]; mouse, in vivo, po",23 nmol/g
same,"Δ[Zn], pancreas","[5]; mouse, in vivo, po",375 nmol/g
same,"Δ[Zn], plasma","[5]; mouse, in vivo, po",6 nmol/g
same,"Se concentration, plasma","[5]; ob/ob mice after 28 days oral treatment, control 0.6 ± 0.1","1.1 ± 0.2 **^,##,†† µg/mL"
same,"Zn concentration, plasma","[5]; ob/ob mice after 28 days oral treatment, control 2.1 ± 0.1","2.5 ± 0.2 **^,## µg/mL"
same,Pancreatic islet numbers per section,"[6]; among normal, control and treated mice",not significantly changed
same,Glycogen and fat deposition area ratio in the liver,[6]; between control and treated mice,no significant differences
same,Pancreatic islet area ratio and size,[6]; compared with normal mice,significantly increased
same,Glycogen content in the liver,[7]; control 0.08 ± 0.04,0.04 ± 0.01 mg/g liver
same,TG content in the liver,[7]; control 437 ± 139,443 ± 42 mg/g liver
same,Glucose Uptake,[8],138 ± 6 µg/10^6 Cells
